According to patent US20090318468A1, “PYRAZOLE COMPOUNDS 436” (AstraZeneca AB, priority 2008, published 2009):

Assays:
Type in all cases: in vitro ADME
[1] = target: T1, human cytochrome P450 (CYP) 3A4 (Homo sapiens, UniProt P08684); assay: Cytochrome P450 Inhibition Assay, CYP 3A4; conditions: test compound 0.1-10 μM, substrate BFC
T1 construct: made in house; host or cells: yeast (microsomal fraction)
Protocol: (§1) Cytochrome P450 Inhibition Assay
(§2) The inhibitory potential (IC50) of test compounds against 5 human cytochrome P450 (CYP) isoforms (1A2, 2C9, 2C19, 3A4 and 2D6) was assessed using an automated fluorescent end point in vitro assay modified from Crespi (Crespi and Stresser, J Pharmacol Toxicol Methods 2000, 44: 325-331). Microsomal subcellular fractions prepared from Yeast cell lines expressing each human CYP isoform were used as an enzyme source in this assay. The activity of the 5 major human CYPs was determined from the biotransformation of a number of coumarin substrates to fluorescent metabolites, in the presence of NADPH. […] Stock solutions of each CYP, with its respective substrate, were prepared in phosphate buffer pH 7.4 (see Table 1) and 178 μl was added to the well of a black solid, flat bottom, 300 μl 96 well microtitre plate (Corning Costar). […] The appropriate solvent controls and substrate blanks were included in each experiment to assess control activity and identify any inherent fluorescence due to the test compounds. […] The plates were read on a fluorimeter (Spectrafluor Plus) at the appropriate excitation and emission wavelengths (listed in Table 2) and the percent activity, corrected for control, was plotted against the test compound concentration.

[2] = Protein binding by equilibrium dialysis (rat); conditions: 20 μM compound, 10% plasma, 37° C., read-out: % free (protein binding)
Protocol: Protein binding is determined by equilibrium dialysis. A 20 μM concentration of compound is dialyzed against 10% plasma at a temperature of 37° C. for 18 h. The resulting samples are analyzed using generic HPLC-UV methodology coupled with mass spectral peak identification. The reported K1 value is the first apparent association constant [proteináligand]/([protein][ligand]), all concentrations being measured in moles/liter (J. Med. Chem., 2006, 49(23), 6672-6682).
Protein binding can be measured in a high-throughput screen by equilibrium dialysis combined with liquid chromatography and mass spectrometry (Wan, H. and Rehngren, M., J. Chromatogr. A 2006, 1102, 125-134).

[3] = target: T2, human cytochrome P450 (CYP) 1A2 (Homo sapiens, UniProt P05177); assay: Cytochrome P450 Inhibition Assay, CYP 1A2; conditions: test compound 0.1-10 μM, substrate CEC
T2 construct: made in house; host or cells: yeast (microsomal fraction)
T2 sequence (P05177 1-516): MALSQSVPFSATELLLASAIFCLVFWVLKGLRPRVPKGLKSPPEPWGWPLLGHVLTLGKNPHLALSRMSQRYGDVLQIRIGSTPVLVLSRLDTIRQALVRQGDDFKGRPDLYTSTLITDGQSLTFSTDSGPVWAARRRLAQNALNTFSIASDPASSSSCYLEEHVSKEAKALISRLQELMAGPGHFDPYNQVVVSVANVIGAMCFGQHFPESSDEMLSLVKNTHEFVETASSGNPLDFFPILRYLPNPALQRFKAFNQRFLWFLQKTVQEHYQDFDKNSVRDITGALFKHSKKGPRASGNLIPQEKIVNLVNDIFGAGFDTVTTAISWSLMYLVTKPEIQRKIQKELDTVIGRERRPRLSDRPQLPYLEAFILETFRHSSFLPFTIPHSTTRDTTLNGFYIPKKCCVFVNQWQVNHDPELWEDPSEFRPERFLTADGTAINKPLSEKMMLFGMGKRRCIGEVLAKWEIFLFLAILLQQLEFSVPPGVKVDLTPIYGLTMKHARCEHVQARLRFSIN
Protocol: as §1
as §2, with “Comparison” for “Stock solutions”, “the fluorescence observed in the presence of varying concentrations of test compound” for “each CYP,”, “with that seen in” for “with”, “absence allowed an IC50 value” for “respective substrate, were prepared in phosphate buffer pH 7.4 (see Table 1) and 178 μl was added”, “be calculated.” for “the well of a black solid, flat bottom, 300 μl 96 well microtitre plate (Corning Costar).”

T1 sequence (P08684 whole entry): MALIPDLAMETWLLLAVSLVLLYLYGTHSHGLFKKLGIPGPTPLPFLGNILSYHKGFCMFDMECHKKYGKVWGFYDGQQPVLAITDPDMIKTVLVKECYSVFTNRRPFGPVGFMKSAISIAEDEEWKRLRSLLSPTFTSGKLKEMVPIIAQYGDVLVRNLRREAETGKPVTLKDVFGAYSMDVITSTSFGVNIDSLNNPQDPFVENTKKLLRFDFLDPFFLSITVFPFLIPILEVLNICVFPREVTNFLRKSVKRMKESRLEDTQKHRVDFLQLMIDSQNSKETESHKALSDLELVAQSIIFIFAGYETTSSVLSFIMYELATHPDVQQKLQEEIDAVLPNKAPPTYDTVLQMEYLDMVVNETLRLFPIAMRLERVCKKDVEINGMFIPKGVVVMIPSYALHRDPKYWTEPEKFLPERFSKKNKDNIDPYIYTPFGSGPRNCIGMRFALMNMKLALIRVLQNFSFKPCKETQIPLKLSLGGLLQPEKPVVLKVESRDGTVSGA

SMILES	IC50 [1] [µM]	fraction unbound at 18 h, 20 μM [2]	IC50 [3] [µM]
COc1cc(CCc2cc(NC(=O)c3ccc(N4CCN(C)[C@@H](C)C4)cc3)[nH]n2)cc(OC)c1 [Example 1a, (S)—N-(3-(3,5-Dimethoxyphenethyl)-1H-pyrazol-5-yl)-4-(3,4-dimethylpiperazin-1-yl)benzamide]	2.94	0.0091	> 10
COc1cc(CCc2cc(NC(=O)c3ccc(N4CCN(C)[C@H](C)C4)cc3)[nH]n2)cc(OC)c1 [Example 1b, (R)—N-(3-(3,5-Dimethoxyphenethyl)-1H-pyrazol-5-yl)-4-(3,4-dimethylpiperazin-1-yl)benzamide]	> 10	0.0062	> 10
